According to paper PMC12844335, “Cycloruthenated Imines: A Step into the Nanomolar Region” (Molecules, 2026):
Read-outs that look alike come from different tables or passages of the source.

Assays:
[1] = tested on: A2780 human ovarian carcinoma cell line; experiment: MTT antiproliferative assay, A2780; format: cell-based; conditions: mean ± SD of three independent experiments, read-out: IC50 (72 h) А2780
Method: (§1) The in vitro antiproliferative activity of the synthesized Ru-organometallic compounds and several starting ligands was evaluated against three human cell lines using the MTT assay. We selected a small panel of cell lines that provided insights into the efficacy and potential therapeutic utility of the compounds. The panel includes the A2780 human ovarian carcinoma cell line, which is sensitive to cisplatin, its cisplatin-resistant counterpart, A2780cis, also a non-malignant human embryonic kidney cell line, HEK293. The use of A2780 and A2780cis paired cell lines allowed us to directly assess the ability of the compounds to overcome resistance mechanisms. The inclusion of the HEK293 cell line can give us preliminary indication of selectivity against non-cancerous cells. Cisplatin, a clinically used drug, was used as a positive control in all experiments. All studies were performed in triplicate and repeated in three independent experiments.
(§2) The human A2780 ovarian adenocarcinoma, A2780cis cisplatin resistant ovarian adenocarcinoma, HEK293 human embryonic kidney cell lines were obtained from the European collection of authenticated cell cultures (ECACC; Salisbury, UK). Cells were grown in a RPMI 1640 (Gibco™, Cork, Ireland) cell medium (A2780, A2780cis), or DMEM (Gibco™, Ireland) cell medium (HEK293) supplemented with 10% fetal bovine serum (Gibco™, São Paulo, Brazil). The cells were cultured in an incubator at 37 °C in a humidified 5% CO2 atmosphere and were subcultured two times a week. The antiproliferative activity was studied by MTT assays as published previously [38].

[2] = tested on: A2780cis cisplatin resistant ovarian adenocarcinoma; experiment: MTT antiproliferative assay, A2780cis; format: cell-based, human; conditions: for Rf resistance coefficient: IC50 on A2780cis divided on IC50 on A2780; for IC50: MTT, 72 h incubation, mean ± SD of three independent experiments;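 as to all read-outs here: antiproliferative MTT assay with 72 h exposure on cisplatin-resistant A2780cis versus parent A2780 cells, cisplatin as positive control, triplicate wells in each of three independent experiments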
Method: as §1, §2

[3] = tested on: HEK293 human embryonic kidney cell line; experiment: MTT antiproliferative assay, HEK293; format: cell-based; conditions: for Selectivity Index, SI: IC50 on HEK293 divided on IC50 on A2780; for IC50: MTT, 72 h incubation, mean ± SD of three independent experiments;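 as to all read-outs here: cells grown at 37 °C under humidified 5% CO2, cisplatin run alongside as positive control, each test in triplicate wells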
Method: as §1, §2

[4] = Homo sapiens, A2780, 72 h incubation

Compound	IC50 ([1]; 72 h incubation)	Rf resistance coefficient [2]	Selectivity Index, SI [3]	IC50 [3]	IC50 [1, 4]	IC50 ([2]; Homo sapiens, A2780cis)	IC50 ([3]; Homo sapiens, HEK293)	IC50 [2]
N.N.[Cl][Pt][Cl] [Cisplatin, reference compound]	2640 ± 350 nM	5.9	8.3	22000 nM	–	–	–	–
Fc1ccc(/N=C/c2ccccc2)cc1 [Compound 1b]	–	–	–	–	> 200000 nM	> 100000 nM	21600 nM	–
CCOC(=O)c1ccc(/N=C/c2ccccc2)cc1 [Compound 1g]	–	–	–	–	42100 nM	> 100000 nM	25400 nM	–
C1=[N+](c2ccccc2)[Ru-4]23([c]4ccccc41)([n+]1ccccc1-c1cccc[n+]12)[n+]1ccccc1-c1cccc[n+]13.F[P-](F)(F)(F)(F)F [Compound 3a, Bis(2,2′-bipiridine)[N-((phenyl-κC^2)methyliden]aniline-κN]ruthenium(II) hexafluorophosphate]	33 ± 7 nM	0.9	1.6	53 ± 4 nM	–	–	–	30 ± 10 nM
F[P-](F)(F)(F)(F)F.Fc1ccc([N+]2=Cc3cccc[c]3[Ru-4]234([n+]2ccccc2-c2cccc[n+]23)[n+]2ccccc2-c2cccc[n+]24)cc1 [Compound 3b, Bis(2,2′-bipiridine)[N-((phenyl-κC^2)methyliden]-4-fluoroaniline-κN]ruthenium(II) hexafluorophosphate]	90 ± 30 nM	2.8	1.1	100 ± 30 nM	–	–	–	250 ± 60 nM
Cc1ccc([N+]2=Cc3cccc[c]3[Ru-4]234([n+]2ccccc2-c2cccc[n+]23)[n+]2ccccc2-c2cccc[n+]24)cc1.F[P-](F)(F)(F)(F)F [Compound 3c, Bis(2,2′-bipiridine)[N-((phenyl-κC^2)methyliden]-4-methylaniline-κN]ruthenium(II) hexafluorophosphate]	70 ± 6 nM	1.7	1.0	70 ± 10 nM	–	–	–	120 ± 10 nM
CCc1ccc([N+]2=Cc3cccc[c]3[Ru-4]234([n+]2ccccc2-c2cccc[n+]23)[n+]2ccccc2-c2cccc[n+]24)cc1.F[P-](F)(F)(F)(F)F [Compound 3d, Bis(2,2′-bipiridine)[N-((phenyl-κC^2)methyliden]-4-ethylaniline-κN]ruthenium(II) hexafluorophosphate]	45 ± 5 nM	3.3	1.8	80 ± 10 nM	–	–	–	150 ± 10 nM
CC(C)(C)c1ccc([N+]2=Cc3cccc[c]3[Ru-4]234([n+]2ccccc2-c2cccc[n+]23)[n+]2ccccc2-c2cccc[n+]24)cc1.F[P-](F)(F)(F)(F)F [Compound 3e, Bis(2,2′-bipiridine)[N-((phenyl-κC^2)methyliden]-4-(tert-butyl)aniline-κN]ruthenium(II) hexafluorophosphate]	70 ± 30 nM	2.4	1.0	68 ± 6 nM	–	–	–	170 ± 30 nM
COc1ccc([N+]2=Cc3cccc[c]3[Ru-4]234([n+]2ccccc2-c2cccc[n+]23)[n+]2ccccc2-c2cccc[n+]24)cc1.F[P-](F)(F)(F)(F)F [Compound 3f, Bis(2,2′-bipiridine)[N-((phenyl-κC^2)methyliden]-4-methoxyaniline-κN]ruthenium(II) hexafluorophosphate]	65 ± 4 nM	1.8	1.0	64 ± 7 nM	–	–	–	120 ± 40 nM
CCOC(=O)c1ccc([N+]2=Cc3cccc[c]3[Ru-4]234([n+]2ccccc2-c2cccc[n+]23)[n+]2ccccc2-c2cccc[n+]24)cc1.F[P-](F)(F)(F)(F)F [Compound 3g, Bis(2,2′-bipiridine)[N-((phenyl-κC^2)methyliden]-4-ethoxycarbonylaniline-κN]ruthenium(II) hexafluorophosphate]	100 ± 20 nM	2.3	1.4	140 ± 20 nM	–	–	–	230 ± 20 nM
F[P-](F)(F)(F)(F)F.O=[N+]([O-])c1ccc([N+]2=Cc3cccc[c]3[Ru-4]234([n+]2ccccc2-c2cccc[n+]23)[n+]2ccccc2-c2cccc[n+]24)cc1 [Compound 3h, Bis(2,2′-bipiridine)[N-((phenyl-κC^2)methyliden]-4-nitroaniline-κN]ruthenium(II) hexafluorophosphate]	250 ± 30 nM	3.0	1.5	370 ± 80 nM	–	–	–	760 ± 80 nM
FC(F)(F)c1ccc([N+]2=Cc3cccc[c]3[Ru-4]234([n+]2ccccc2-c2cccc[n+]23)[n+]2ccccc2-c2cccc[n+]24)cc1.F[P-](F)(F)(F)(F)F [Compound 3i, Bis(2,2′-bipiridine)[N-((phenyl-κC^2)methyliden]-4-(trifluoromethyl)aniline-κN]ruthenium(II) hexafluorophosphate]	80 ± 10 nM	3.0	1.3	107 ± 8 nM	–	–	–	240 ± 20 nM
F[P-](F)(F)(F)(F)F.Fc1ccc([N+]2=Cc3scc[c]3[Ru-4]234([n+]2ccccc2-c2cccc[n+]23)[n+]2ccccc2-c2cccc[n+]24)cc1 [Compound 3j, Bis(2,2′-bipiridine)[N-((thiophene-2-yl-κC^2)methyliden]-4-fluoroaniline-κN]ruthenium(II) hexafluorophosphate]	43 ± 3 nM	2.1	1.4	60 ± 10 nM	–	–	–	91 ± 9 nM
Cc1ccc([N+]2=Cc3scc[c]3[Ru-4]234([n+]2ccccc2-c2cccc[n+]23)[n+]2ccccc2-c2cccc[n+]24)cc1.F[P-](F)(F)(F)(F)F [Compound 3k, Bis(2,2′-bipiridine)[N-((thiophene-2-yl-κC^2)methyliden]-4-methylaniline-κN]ruthenium(II) hexafluorophosphate]	30 ± 2 nM	0.3	2.3	70 ± 30 nM	–	–	–	10 ± 0.4 nM
COc1ccc([N+]2=Cc3scc[c]3[Ru-4]234([n+]2ccccc2-c2cccc[n+]23)[n+]2ccccc2-c2cccc[n+]24)cc1.F[P-](F)(F)(F)(F)F [Compound 3l, Bis(2,2′-bipiridine)[N-((thiophene-2-yl-κC^2)methyliden]-4-methoxyaniline-κN]ruthenium(II) hexafluorophosphate]	39 ± 3 nM	1.0	1.0	40 ± 10 nM	–	–	–	39 ± 10 nM
CCOC(=O)c1ccc([N+]2=Cc3scc[c]3[Ru-4]234([n+]2ccccc2-c2cccc[n+]23)[n+]2ccccc2-c2cccc[n+]24)cc1.F[P-](F)(F)(F)(F)F [Compound 3m, Bis(2,2′-bipiridine)[N-((thiophene-2-yl-κC^2)methyliden]-4-ethoxycarbonylaniline-κN]ruthenium(II) hexafluorophosphate]	57 ± 20 nM	1.5	2.5	140 ± 10 nM	–	–	–	84 ± 12 nM
F[P-](F)(F)(F)(F)F.O=[N+]([O-])c1ccc([N+]2=Cc3scc[c]3[Ru-4]234([n+]2ccccc2-c2cccc[n+]23)[n+]2ccccc2-c2cccc[n+]24)cc1 [Compound 3n, Bis(2,2′-bipiridine)[N-((thiophene-2-yl-κC^2)methyliden]-4-nitroaniline-κN]ruthenium(II) hexafluorophosphate]	270 ± 4 nM	3.6	2.0	530 ± 30 nM	–	–	–	960 ± 100 nM
FC(F)(F)c1ccc([N+]2=Cc3scc[c]3[Ru-4]234([n+]2ccccc2-c2cccc[n+]23)[n+]2ccccc2-c2cccc[n+]24)cc1.F[P-](F)(F)(F)(F)F [Compound 3o, Bis(2,2′-bipiridine)[N-((thiophene-2-yl-κC^2)methyliden]-4-(trifluoromethyl)aniline-κN]ruthenium(II) hexafluorophosphate]	96 ± 3 nM	–	1.7	160 ± 30 nM	–	–	–	150 ± 5 nM
